Literature values in patent US20120100192A1, “LOCAL THERAPEUTIC RELEASE DEVICE” (DEXCEL PHARMA TECHNOLOGIES LTD., priority 2009, published 2012).

Experiments:
[1] = test system: alveolar bone loss; conditions: 24 months, FBP-treated patient group
[2] = test system: periodontal disease; conditions: 100 mg/day for two months; standardized radiography, radiopharmaceutical uptake
[3] = test system: naturally occurring periodontitis; conditions: application for 6-12 months, beagle dogs
[4] = test system: periodontal disease; conditions: topical toothpaste, 1% w/w, twice daily for 12 months
[5] = test system: experimentally induced periodontal disease; conditions: Macaca mulatta monkeys

## CC(C(=O)O)c1ccc(-c2ccccc2)c(F)c1 (centres unmarked) [FBP, flurbiprofen]
[1]
  Effect on bone loss: reduction in bone loss
[2]
  Effect on bone metabolism: increased bone metabolism
[3]
  Effect on alveolar bone loss: inhibited alveolar bone loss
[4]
  Effect on bone: statistically significant bone gain
[5]
  Effect on attachment, bleeding on probing and gingival redness: significant inhibition of attachment, bleeding on probing and gingival redness
